Source: PubChem BioAssay (NCI)
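Where inhibition never reached the appropriate level, the endpoint shown equals the highest concentration tested. Otherwise, values were interpolated linearly from a five-concentration, 48-hour dose response in 96-well plates. Abbreviation: GI50, concentration required for 50% inhibition of growth. TGI: total growth inhibition.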

Tests used:
Assay in all cases: NCI-60 cell line screen, 48 h
CAKI-1 renal = system: CAKI-1 renal
HOP-92 NSCLC = system: HOP-92 NSCLC
MALME-3M melanoma = system: MALME-3M melanoma
NCI-H460 lung = system: NCI-H460 lung
SF-268 CNS = system: SF-268 CNS
SK-MEL-2 melanoma = system: SK-MEL-2 melanoma
SK-MEL-28 melanoma = system: SK-MEL-28 melanoma
SK-MEL-5 melanoma = system: SK-MEL-5 melanoma
T-47D breast = system: T-47D breast
TK-10 renal = system: TK-10 renal

Structure (SMILES) | TGI (CAKI-1 renal) | TGI (HOP-92 NSCLC) | TGI (MALME-3M melanoma) | TGI (NCI-H460 lung) | TGI (SF-268 CNS) | TGI (SK-MEL-2 melanoma) | TGI (SK-MEL-28 melanoma) | TGI (SK-MEL-5 melanoma) | TGI (T-47D breast) | TGI (TK-10 renal) | GI50 (CAKI-1 renal) | GI50 (HOP-92 NSCLC) | GI50 (MALME-3M melanoma) | GI50 (NCI-H460 lung) | GI50 (SF-268 CNS) | GI50 (SK-MEL-2 melanoma) | GI50 (SK-MEL-28 melanoma) | GI50 (SK-MEL-5 melanoma) | GI50 (T-47D breast) | GI50 (TK-10 renal)
C=C1C(=O)O[C@@H]2C[C@@]3(C)CCC[C@H](C)C3=C[C@H]12 | 17.3 µM | 11.2 µM | 15.8 µM | 31.7 µM | 26.7 µM | 14.7 µM | 20.5 µM | 17.9 µM | 9.36 µM | 9.35 µM |  |  |  |  |  |  |  |  |  | 
CC1=CC(=NC(=O)CBr)C=C/C1=N\S(=O)(=O)c1ccccc1 | 11.4 µM | 6.77 µM | 5.89 µM | 34 µM | 13.7 µM | 16 µM | 19.4 µM | 3.98 µM | 5.04 µM | 7.04 µM | 3.11 µM | 1.8 µM | 2.06 µM | 15.1 µM | 3.69 µM | 4.04 µM | 6.25 µM | 1.79 µM | 2.1 µM | 2.85 µM
COc1ccc(CCN2C(=O)C=CC2=O)cc1OC | 27.4 µM | 40.1 µM | 29.8 µM | 46.8 µM | 54.4 µM | 14.8 µM | 31.4 µM | 31.5 µM | 31.9 µM | 33.2 µM |  |  |  |  |  |  |  |  |  | 
Cn1cc(-c2nc(-c3c[nH]c4ncccc34)cs2)c2cc(F)ccc21 | 8.44 µM | 5.79 µM | 13.4 µM | 6.72 µM | 22.5 µM | 11.1 µM | 16.9 µM | 11.5 µM | 4.43 µM | 15.3 µM | 2.2 µM | 1.92 µM | 2.73 µM | 1.89 µM | 3.32 µM | 3.81 µM | 4.75 µM | 2.6 µM | 0.0443 µM | 2.78 µM
COc1ccc2c(c1)c(-c1ccc(-c3cn(S(=O)(=O)c4ccccc4)c4ccc(OC)cc34)s1)cn2S(=O)(=O)c1ccccc1 | > 100 µM | > 100 µM | > 100 µM | > 100 µM | > 100 µM | > 100 µM | > 100 µM | > 100 µM | > 100 µM | > 100 µM | > 100 µM | > 100 µM | > 100 µM | > 100 µM | > 100 µM | > 100 µM | > 100 µM | > 100 µM | > 100 µM | > 100 µM
Cn1cncc1[C@@](N)(c1ccc(Cl)cc1)c1ccc2c(c1)c(-c1cccc(Cl)c1)cc(=O)n2C | 14.7 µM | 2.69 µM | 12.1 µM | 11.9 µM | 14.7 µM | 4.99 µM | 14.7 µM | 6.83 µM | 17.2 µM | 10.8 µM | 3.08 µM | 0.174 µM | 0.901 µM | 1.97 µM | 3.01 µM | 1.39 µM | 2.8 µM | 1.8 µM | 2.57 µM | 2.57 µM
Cn1ccnc1C(=O)/C=C/c1ccc(C(=O)Nc2ccc(Cl)cc2)cc1 | > 33.3 µM | 27 µM | 12.2 µM | 2 µM | > 33.3 µM | > 33.3 µM | 9.89 µM | 7.04 µM | > 33.3 µM | 17.2 µM | 1.17 µM | 1.14 µM | 2.23 µM | 0.747 µM | 1.37 µM | 7.68 µM | 3.7 µM | 2.35 µM | 0.846 µM | 0.973 µM
O=C1CC(c2ccc(N3CCOCC3)cc2)(c2ccsc2)NC(=O)C1Sc1ccccc1Cl (stereo not drawn) | > 100 µM | > 100 µM | > 100 µM | > 100 µM | > 100 µM | > 100 µM | > 100 µM | > 100 µM | > 100 µM | > 100 µM | 28.4 µM | 11.8 µM | > 100 µM | 13.5 µM | 20.2 µM | 49.3 µM | 38.4 µM | 36.6 µM | 85.9 µM | > 100 µM
Oc1ccc2cc(Br)ccc2c1-c1c(O)ccc2cc(Br)ccc12 | 8.77 µM | 7.93 µM | 6.05 µM | 15 µM | 13.2 µM | 13.5 µM | 13.1 µM | 3.74 µM | 17.3 µM | 5.86 µM | 2.27 µM | 3.01 µM | 2.19 µM | 3.76 µM | 3.27 µM | 3.82 µM | 3.68 µM | 1.87 µM | 4.61 µM | 2.52 µM
Cc1cc2c(cc1Cl)SC1=CC(=O)N(c3ccccc3)C1=NS2(=O)=O | > 100 µM | > 100 µM | > 100 µM | > 100 µM | > 100 µM | > 100 µM | 40.9 µM | 10.8 µM | 65.1 µM | 60.3 µM | > 100 µM | 34.3 µM | 44.6 µM | 59.5 µM | 92.3 µM | 51.4 µM | 16.9 µM |  | 13 µM | 21.6 µM
COc1cc(NS(C)(=O)=O)ccc1Nc1c2ccc(Cl)cc2nc2c(OC)cccc12 | 1.87 µM | 2.48 µM | 4.69 µM | 1.37 µM | 11.5 µM | 7.35 µM | 18 µM | 3.97 µM | 3.37 µM | 1.83 µM | 0.0316 µM | 0.0765 µM | 0.211 µM |  | 0.131 µM | 1.47 µM | 1.96 µM | 0.129 µM | 0.0826 µM | 0.137 µM
CC[C@@H](C(=O)[C@@H](C)[C@@H](O)[C@H](C)[C@@H]1O[C@@H]([C@@H](CC)C(=O)O)CC[C@@H]1C)C1O[C@]2(C=CC(=O)[C@]3(CC[C@@](C)([C@H]4CC[C@](O)(CC)[C@H](C)O4)O3)O2)[C@H](C)C[C@@H]1C (stereo partly drawn) | 11.8 µM | 8.02 µM | 0.774 µM | 11.3 µM | 15.7 µM | 7.03 µM | 2.53 µM | 0.232 µM | 17.3 µM | 25.8 µM | 0.765 µM | 1.33 µM | 0.163 µM | 0.408 µM | 2.12 µM | 1.04 µM | 1.26 µM | 0.0658 µM | 0.0596 µM | 2.08 µM
O=C1NN(c2ccc(C(=O)O)cc2)C(=O)/C1=C\c1ccc([N+](=O)[O-])o1 | 31.1 µM | 74.8 µM | 41.2 µM | > 100 µM | > 100 µM | > 100 µM | > 100 µM | > 100 µM | 50 µM | 66.8 µM | 16.1 µM | 29 µM | 20.7 µM | > 100 µM | 61.2 µM | 83.1 µM | > 100 µM | > 100 µM | 21.4 µM | 25.5 µM
C/C=C(\C)C(=O)N[C@H]1CC[C@]2(C)C3CC[C@@]4(C)C(CC[C@@H]4C(C)N(C)C)C3CCC2[C@H]1OC(C)=O (stereo partly drawn) | 4.86 µM | 3.47 µM | 3.73 µM | 2.26 µM | 2.89 µM | 4.48 µM | 3.24 µM | 2.3 µM | 5.42 µM | 4.59 µM | 2.11 µM | 1.24 µM | 1.91 µM | 0.923 µM | 1.39 µM | 2.29 µM | 1.59 µM | 1.05 µM | 1.74 µM | 2.16 µM
c1ccc(Cn2cc3c(c2-c2ccccc2)CCc2cnoc2-3)cc1 | > 100 µM | > 100 µM | 30.1 µM | 22.1 µM | > 100 µM | > 100 µM | > 100 µM | 12.8 µM | > 100 µM | > 100 µM | 4.4 µM | 18 µM | 3.13 µM | 3.41 µM | 8.05 µM | 11.5 µM | 6.58 µM | 2.79 µM | 4.5 µM | 8.22 µM
